Positions count from the first letter of the chain named. ≈ marks a conversion by molar mass, not a printed value.
Assays:
[1] = Toxicity against Photobacterium phosphoreum T3 mutant assessed as inhibition of luminescence after 15 mins by microtox test; type: organism-based; settings: Photobacterium phosphoreum T3 mutant (luminescent bacteria), read-out: LC50
[2] = target: T1, Type-2 angiotensin II receptor (Homo sapiens, UniProt P50052); assay: Displacement of [125I]Sar1 Ile8-Ang 2 from angiotensin 2 AT2 receptor after 180 mins by gamma counting
T1 sequence (P50052 whole entry): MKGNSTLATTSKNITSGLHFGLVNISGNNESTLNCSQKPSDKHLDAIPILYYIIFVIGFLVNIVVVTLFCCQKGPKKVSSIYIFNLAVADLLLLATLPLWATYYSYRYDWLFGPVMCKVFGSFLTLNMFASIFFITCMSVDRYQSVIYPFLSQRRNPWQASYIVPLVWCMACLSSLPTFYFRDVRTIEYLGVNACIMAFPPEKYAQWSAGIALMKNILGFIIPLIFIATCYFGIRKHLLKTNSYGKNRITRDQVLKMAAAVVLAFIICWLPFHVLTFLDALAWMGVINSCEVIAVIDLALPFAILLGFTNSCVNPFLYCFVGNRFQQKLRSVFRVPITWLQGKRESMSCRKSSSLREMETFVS

[3] = target: T2, Type-1 angiotensin II receptor (Homo sapiens, UniProt P30556); assay: Displacement of [125I]Sar1 Ile8-Ang 2 from angiotensin 2 AT1 receptor after 180 mins by gamma counting
T2 sequence (P30556 whole entry): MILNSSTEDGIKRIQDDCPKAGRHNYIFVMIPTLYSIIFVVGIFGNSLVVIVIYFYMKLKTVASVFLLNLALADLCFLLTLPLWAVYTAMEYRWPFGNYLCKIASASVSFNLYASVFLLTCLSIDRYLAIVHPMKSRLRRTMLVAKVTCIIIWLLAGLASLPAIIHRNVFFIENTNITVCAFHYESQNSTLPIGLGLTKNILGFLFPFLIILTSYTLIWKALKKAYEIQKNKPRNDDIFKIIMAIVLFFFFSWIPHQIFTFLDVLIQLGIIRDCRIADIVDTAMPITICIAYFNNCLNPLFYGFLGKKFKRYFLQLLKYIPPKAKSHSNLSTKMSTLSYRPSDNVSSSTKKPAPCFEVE

[4] = target: T3, Type-1 angiotensin II receptor (Oryctolagus cuniculus, UniProt P34976); assay: Antagonist activity at angiotensin 2 AT1 receptor in Japanese White rabbits thoracic aorta assessed as inhibition of angiotensin II-induced contraction after 60 mins; settings: read-out: pA2 (converted)
T3 sequence (P34976 whole entry): T2 sequence (P30556 whole entry) with I2M, V49A, I254V, I270V, R272H, R311K, T349S, A353V

Rattus norvegicus = assay: Antihypertensive activity in spontaneously hypertensive rat assessed as decrease in blood pressure at 10 mg/kg, po by tail plethysmography; type: functional
[5] = target: T4, Type-1 angiotensin II receptor (Homo sapiens) (UniProt P30556); assay: Ratio of losartan IC50 to compound IC50 for angiotensin 2 AT1 receptor
T4 sequence (whole entry): T2 sequence (P30556 whole entry)

Compound | EC50 (luminescence inhibition) at 0.25 h [1] [mg/L] | IC50 [2] [µM] | IC50 [3] [µM] | Kb [4] [µM] | Activity (Rattus norvegicus) [mmHg] | Ratio IC50 [5]
CCCc1nc2c(C)cc(C(=O)NCCc3ccc(F)cc3)cc2n1Cc1ccc(-c2ccccc2C(=O)O)cc1 | 89 (≈ 162 µM) | 1.3 | 0.198 | – | – | –
CCCc1nc2c(C)cc(C(=O)NCCc3ccc(OC)cc3)cc2n1Cc1ccc(-c2ccccc2C(=O)O)cc1 | > 100 | 1.5 | 0.214 | – | – | –
CCCc1nc2c(C)cc(C(=O)NCc3ccccc3)cc2n1Cc1ccc(-c2ccccc2C(=O)O)cc1 | 78 (≈ 151 µM) | – | 0.0525 | – | – | –
CCCc1nc2c(C)cc(C(=O)NCc3ccc(OC)c(OC)c3)cc2n1Cc1ccc(-c2ccccc2C(=O)O)cc1 | > 100 | > 10 | 0.0306 | – | – | –
CCCc1nc2c(C)cc(C(=O)NCCc3cccc(OC)c3)cc2n1Cc1ccc(-c2ccccc2C(=O)O)cc1 | 72 (≈ 128 µM) | > 10 | 0.0308 | – | – | –
CCCc1nc2c(C)cc(C(=O)NCc3ccccc3OC)cc2n1Cc1ccc(-c2ccccc2C(=O)O)cc1 | > 100 | 1.1 | 0.0024 | 0.00692 | – | –
CCCc1nc2c(C)cc(C(=O)NCc3cccc(OC)c3)cc2n1Cc1ccc(-c2ccccc2C(=O)O)cc1 | > 100 | > 10 | 0.326 | – | – | –
CCCc1nc2c(C)cc(C(=O)NCc3ccc(OC)cc3)cc2n1Cc1ccc(-c2ccccc2C(=O)O)cc1 | > 100 | 3.6 | 0.0043 | 0.00479 | – | –
CCCc1nc2c(C)cc(C(=O)NCCc3ccc(OC)c(OC)c3)cc2n1Cc1ccc(-c2ccccc2C(=O)O)cc1 | > 100 | 1.2 | 0.0576 | – | – | –
CCCc1nc2c(C)cc(C(=O)NCCc3ccccc3F)cc2n1Cc1ccc(-c2ccccc2C(=O)O)cc1 | 65 (≈ 118 µM) | – | 0.106 | – | – | –
CCCc1nc2c(C)cc(C(=O)NCCc3cc(OC)ccc3OC)cc2n1Cc1ccc(-c2ccccc2C(=O)O)cc1 | > 100 | 1.4 | 0.0013 | 0.00316 | >30 | 12
